The values that follow come from PMC5234788 (PLoS ONE, 2017).

This assay has as its target T1, 5-HT1A receptors in rat hippocampus (Rattus norvegicus, UniProt P19327).
T1 construct: rat hippocampal tissues highly expressing 5-HT1A receptors were prepared as previously described; from tissue; host or cells: SD rat hippocampus membranes
Briefly: [35S]GTPγS assay for 5-HT1A receptor activity in rat hippocampus. The format is biochemical. Particulars: rat hippocampus membranes; read-out: EC50, increase in [35S]GTPγS binding. The text has this: D2-D4 dopamine receptors and 5-HT1A serotonin receptors are Gαi-coupled receptors that mediate inhibitory neurotransmission. We conducted [^35S]GTPγS assays to determine the agonist or antagonist properties of l-THBr at D2 dopamine receptors or 5-HT1A serotonin receptors. HEK293 cells stably expressing D2 receptors were provided by the Beijing Institute of Pharmacology and Toxicology (Beijing, China). The membrane preparation of D2-expressing HEK293 cells and rat hippocampal tissues highly expressing 5-HT1A receptors were prepared as previously described. Briefly, 10 SD rats were anesthetized and decapitated, and the hippocampi were quickly dissected and stored at -80°C until use. D2 receptor-expressing HEK293 cells and the hippocampal tissue were each homogenized at 4°C in 50 mM Tris-HCl buffer (pH 7.4). The homogenates were centrifuged at 2500 × g for 6 min, and the supernatant was further centrifuged for 20 min at 40000 × g. Membranes were re-suspended in Tris-HCl buffer and stored at -80°C until use.
[^35S]GTPγS assays were performed in a total volume of 0.5 ml at 4°C. […] Bound radioactivity was determined by liquid scintillation counting. Drug effects were expressed as drug-induced increase in binding over basal binding (binding in the absence of drugs). […] The inhibitory effect of l–THBr was determined by a similar equation to obtain the IC50 values.
For orientation: Binding of GTPγS marks nucleotide exchange on a G protein.

In general, EC50 refers to the concentration at which the effect is half-maximal.

T1 sequence (P19327 whole entry): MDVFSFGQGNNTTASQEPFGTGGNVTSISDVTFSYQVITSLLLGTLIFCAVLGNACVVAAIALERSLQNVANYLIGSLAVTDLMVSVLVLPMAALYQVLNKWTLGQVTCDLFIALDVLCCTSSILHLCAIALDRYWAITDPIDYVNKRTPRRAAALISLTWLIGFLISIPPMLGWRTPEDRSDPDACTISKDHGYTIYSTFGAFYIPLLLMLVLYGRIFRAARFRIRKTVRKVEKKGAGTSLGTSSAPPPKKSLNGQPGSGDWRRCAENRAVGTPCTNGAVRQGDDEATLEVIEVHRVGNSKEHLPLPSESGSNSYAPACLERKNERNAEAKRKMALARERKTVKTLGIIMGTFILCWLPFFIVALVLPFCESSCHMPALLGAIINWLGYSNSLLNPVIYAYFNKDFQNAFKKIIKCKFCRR

With `COc1ccc2c(c1O)CN1CCc3cc4c(cc3[C@@H]1C2)OCO4` [l-THBr, levo-tetrahydroberberrubine], the EC50 was found to be 235 nM.
